Values quoted from earlier work in US4399125A, “Novel antagonists of the antidiuretic action of arginine vasopressin” (priority 1981, dated 1983).

Legend:
[1] = system: oxytocic response to oxytocin; conditions: literature; cited from earlier work
[2] = system: antidiuretic activity (urine flow); conditions: prior art statement; cited from earlier work
[3] = system: vasoconstrictive action; conditions: compared with natural vasopressins; cited from earlier work
[4] = system: vasopressor response to AVP; conditions: prior art statement; cited from earlier work
[5] = system: antidiuretic response to ADH (arginine vasopressin); conditions: earlier work of Manning et al. (in press); cited from earlier work

Substance	oxytocic activity (agonist / antagonist, in words) [1]	antidiuretic potency / activity (in words) [2]	vasopressor antagonism (in words) [4]	other results
1-deamino-oxytocin [dOT]	highly potent oxytocic agonist	–	–	–
1-deamino[4-valine, 8-D-arginine] vasopressin [dVDAVP]	–	highly active and selective antidiuretic peptide	–	–
2-phenylalanine-8-ornithine vasopressin	–	low antidiuretic activity	–	vasoconstrictive action [3]: equal to that of natural vasopressins
[1-(β-Mercapto-β,β-cyclopentamethylenepropionic acid), 2-(O-methyl)tyrosine]-arginine vasopressin	–	very low antidiuretic potency	potent vasopressor antagonists	–
[1-(β-Mercapto-β,β-cyclopentamethylenepropionic acid] arginine vasopressin	–	very low antidiuretic potency	potent vasopressor antagonists	–
[1-(β-mercapto-β,β-cyclopentamethylenepropionic acid), 2-D-tyrosine, 4-valine, 8-D-arginine] vasopressin [d(CH2)5 D-Tyr-VDAVP]	–	–	–	anti-antidiuretic activity (in words) [5]: anti-antidiuretics
[1-(β-mercapto-β,β-cyclopentamethylenepropionic acid), 4-valine, 8-D-arginine] vasopressin	–	weak antidiuretic activity	potent antagonists of the vasopressor response to AVP	–
[1-(β-mercapto-β,β-cyclopentamethylenepropionic acid)] oxytocin [d(CH2)5 OT]	potent antagonists of the oxytocic response to oxytocin	–	–	–
[1-deaminopenicillamine, 4-valine, 8-D-arginine]vasopressin	–	weak antidiuretic activity	potent antagonists of the vasopressor response to AVP	–
[1-deaminopenicillamine] oxytocin [dPOT]	potent antagonists of the oxytocic response to oxytocin	–	–	–
